Read-outs that look alike come from different tables or passages of the source.
Key:
Epithelial cells = test: Cellular viability with CA and CA-R mixes; type: cell-based; conditions: after 5 days, pH 6; CA 20 mM alone or CA 20 mM plus the named CA-R (CAC2NH2 30 mM, CAC6NH2 12 mM)
Description: Magnification of 10×, scale bar=100 μm, dapi in blue and factin in red.
Cellular viability. To be applicable in biological context, the toxicity of the CA and the combined CA-R mixes were verified. Epithelial cells were cultivated in media supplemented with various CA-R mixes and acidified at pH 6. Both the cellular viability and morphology was studied over a 5 day period.

[1] = type: in vitro ADME, bovine; conditions: pH 6
Experimental: (§1) The sample then was stored at −20° C.
(§2) Results. The PAGE analyses were performed for both CA concentrations, and imaged side-by-side (FIG. 2). The strongest resulting band intensities were normalised to the t=0 data-point, plotted as a function of time (See Supplemental), and then fitted to the first-order kinetics equations (Equations 1, 2, and FIG. 3). The rate constants were calculated from these graphs (using Equation 4), and tabulated according to strand and CA concentration (Table 2).
(§3) Equation 4. The Equation 2, written as relationship between the band intensities (I at some t, and at t=0), and the rate constant, k.

[2] = Serum stability assay in L15 media with FBS, denaturing PAGE band intensity; type: in vitro ADME, bovine; conditions: pH 6
Experimental: as §1, §2
Equation 1. First-order rate law for the variation of the concentration of a substance (in this case, nucleic acid, “NA”) with time, where [NA]t is the concentration of NA at a given time t, and [NA]0 is the initial concentration.
as §3

[3] = Rheological measurements of dA/CA hydrogels; type: physicochemical; conditions: for storage modulus (G′): same wt % (dA15 1400 μM, dA30 700 μM, dA50 420 μM), Mag buffer, 25° C.; for G′ window: dA50 420 μM, dA30C8 2 mM, CA 60 mM, CAC2NH2 90 mM
Experimental: Hydrogel Assembly and Rheology: Unless otherwise stated, the preparation of gels follows this procedure. The appropriate amounts of strands are evaporated from their stocks on a speedvaccuum in a 300 μL Eppendorf. For the dA30-dsDNAn hydrogels, the concentration is half strand1 and half strand2. Once dry, 50 μL or 100 μL of a buffer containing the desired concentration of CA and/or CAC2NH2 is added to the Eppendorf. […] Both buffers give similar gels rheologically (FIG. 40). For concentrations of CA exceeding 20 mM or CAC2NH2 30 mM, the excess CA-R is dried with the strands from a water/CA 20 mM solution adjusted to pH 6. The dried DNA is mixed and sonicated to help it dissolve, forming instantly a cloudy filamentous gel. To homogenize the gels, the Eppendorf is heated to 85° C. for 5 minutes a Bio-Rad T100TM thermocycler, then cooled down to 20° C. and kept at that temperature overnight, unless otherwise noted. They are measured the next day. It is important to properly homogenize the gels, mixing them at high temp if needed, and to quickly cool them, or they may form more localized aggregates with varying rheology. Due to the high melting temperature of dA30C8 2 mM, CA 60 mM, CAC2NH2 90 mM, the gel was prepared by heating at 100° C. for 20 min (sealed to prevent water escaping), before being brought to 20° C. Clear monophasic gels are formed from this process.
Rheological measurements: Rheological properties were measured using stress-controlled rheometer (MCR 302, Anton Paar) using a 15 mm diameter cone plate at 0.2 mm (50 μL gels) or 0.5 mm (100 μL gels) gap distance. Samples were taken directly from the Eppendorf in which they were formed by prying it open with a razor blade and placed under the cone plate. The temperature was maintained at 25° C. for all measurements using a Peltier temperature control unit unless otherwise noted. Due to the small thickness of the samples, no temperature gradients are expected. To avoid drying, a solvent trap was used in all the measurements. Amplitude sweeps were first conducted to assess the linear viscoelastic range of the samples by slowly increasing the strain from 0.01% to 100%. […] Oscillatory frequency sweep tests were measured between 0.1 Hz and 100 Hz at 0.1% strain. Strain-cycle experiment was done by cycling the gel between 0.1% and 100% strains at 1 Hz. To understand the shear-thinning behavior of the samples, the viscosity was measured at increasing strain rate ranging from (0.1-100 Hz).
• A) Strand complement. Two 50 μL dA30C4 700 μM hydrogel in Mag buffer with CA 20 mM samples were prepared, as well as a 10 μL sample of dG4T30 3 mM (1.5 eq.) in the same buffer and CA concentration. A sample of dA30C4 hydrogel was measured independently. The dG4T30 sample was added to the second dA30C4 sample and vortexed in its Eppendorf for 2 minutes before being measured. • B) Melamine. A 50 μL hydrogel composed of dA30-dsDNA13 700 μM and CA 20 mM in Mag buffer was measured in the rheometer. The plate of the rheometer was lifted and 50 μL of solution of 20 mM melamine in Mag buffer at pH6 was added to it. Instant white precipitate formed and was encouraged by gently mixing with a spatula for 30s before the resulting liquid with solid precipitate was measured rheologically. • C) pH. A volume of 180 μL of dA30C4v2 700 μM CA 20 mM hydrogel in Mag buffer was prepared. The initial pH was measured at 5.71 with a surface pH meter (Mettler Toledo). An approximate volume of 50 μL was separated and measured rheologically. To the remaining 130 μL, 2.70 μL of NaOH 5.04M was added and stirred through vortexing. The resulting pH of the liquid was measured at 7.91. 50 μL of it were measured rheologically. To the remaining 80 μL, 1.5 μL of HCl 5.04M was added by aliquot and mixed through vortexing, forming a gel with a pH of 5.66 after 2 minutes. To note that in general, it is important to mix vigorously with the addition of the acid, or localized gels will form rather than a homogeneous one. […]

Molecule | k 0 mM [CA] [1] | k 20 mM [CA] [1] | k 0 mM [CA] [2] | k 20 mM [CA] [2] | other results
NCCn1c(=O)[nH]c(=O)[nH]c1=O [CAC2NH2] | – | – | – | – | viability (Epithelial cells): 82±5%
NCCCCCCn1c(=O)[nH]c(=O)[nH]c1=O [CAC6NH2] | – | – | – | – | viability (Epithelial cells): 43±2%
Control random: DNA GATGAGGTACCCAGAAGCCGAACTGGGCCAGACAACCCGGCGCTAAC, SEQ ID NO 11, no polyA (DNA, backbone not given here) [reference compound] | (3.86 ± 0.2) × 10^−2 h^−1 | (3.48 ± 0.8) × 10^−2 h^−1 | – | – | –
R7rA15: RNA strand AAAAAAAAAAAAAAAGTCATCG, SEQ ID NO 3 in Table 1; Table 5 swaps the name with rA15R7 (AAAAAAAAAAAAAAAGUCAUCG; chemistry not fully specified) [Strand R7rA15] | (2.80 ± 0.7) × 10^−2 h^−1 | (7.47 ± 0.4) × 10^−3 h^−1 | (3.73) × 10^−2 h^−1 | (2.59) × 10^−3 h^−1 | –
dA15: DNA strand of 15 adenines, SEQ ID NO 5 (DNA AAAAAAAAAAAAAAA; DNA, backbone not given here) | – | – | – | – | storage modulus (G′) ([3]; 1 Hz, CA 20 mM): 1.3±0.8×10^1 Pa; storage modulus ([3]; pure dA15 hydrogel with CA): ~10^1 Pa; storage modulus ([3]; pure dA15 hydrogel with CAC2NH2 instead of CA, 0.7 wt % (including CAC2NH2)): ~10^3 Pa
dA30C4-v2′: DNA strand, 30 adenines then CCCCGTCGCTCTCTCAAGTAGAAT, SEQ ID NO 10 (DNA AAAAAAAAAAAAAAAAAAAAAAAAAAAAAACCCCGTCGCTCTCTCAAGTAGAAT; DNA, backbone not given here) | (1.33 ± 0.1) × 10^−2 h^−1 | (3.46 ± 0.5) × 10^−3 h^−1 | – | – | –
dA30C4: DNA strand, 30 adenines then CCCC, SEQ ID NO 9 (DNA AAAAAAAAAAAAAAAAAAAAAAAAAAAAAACCCC; DNA, backbone not given here) | – | – | (5.83) × 10^−3 h^−1 | (−2.08) × 10^−3 * h^−1 | G′ and G″ after addition of the complementary strand dG4T30 ([3]; dA30C4 700 μM, CA 20 mM, dG4T30 1.5 eq.): large loss of G′ and G″
dA30C8: DNA strand, 30 adenines then CCCCCCCC, SEQ ID NO 8 (DNA AAAAAAAAAAAAAAAAAAAAAAAAAAAAAACCCCCCCC; DNA, backbone not given here) | (2.29 ± 0.5) × 10^−2 h^−1 | (4.87 ± 0.7) × 10^−3 h^−1 | – | – | moduli at 37° C. ([3]; 1.7 wt % gel, room temperature to 37° C.): virtually unchanged; G′ ([3]; 1.7 wt %, mixture of CA and CAC2NH2): ~10^4 Pa; G′ ([3]; 4.7 wt % (CA-R included), 1 Hz): 8±1×10^4 Pa; G′ ([3]; 4.7 wt % (CA-R included), 10 Hz): 1±0.1×10^5 Pa; storage modulus at 85° C. ([3]; 4.7 wt % gel, 85° C.): above 10^4 Pa; G′ window ([3]; CA 20 mM): ~10^5 Pa; gel state at 100° C. ([3]; qualitatively observed): staying a gel
dA50: DNA strand of 50 adenines, SEQ ID NO 28 (DNA AAAAAAAAAAAAAAAAAAAAAAAAAAAAAAAAAAAAAAAAAAAAAAAAAA; DNA, backbone not given here) | – | – | – | – | storage modulus (G′) ([3]; 1 Hz, CA 20 mM): 4±2×10^1 Pa; G′ window ([3]; CA 20 mM): ~10^1 Pa
rA15: RNA strand AAAAAAAAAAAAAAA, SEQ ID NO 1 (RNA, backbone not given here) | (2.43 ± 0.3) × 10^−2 h^−1 | (2.42 ± 0.2) × 10^−3 h^−1 | (6.70) × 10^−2 h^−1 | (1.07) × 10^−2 h^−1 | –
rA15R7: RNA strand GCTACTGAAAAAAAAAAAAAAA, SEQ ID NO 2 in Table 1; Table 5 swaps the name with R7rA15 (GCUACUGAAAAAAAAAAAAAAA; chemistry not fully specified) | (1.25 ± 0.2) × 10^−1 h^−1 | (2.25 ± 0.2) × 10^−3 h^−1 | (4.67) × 10^−2 h^−1 | (4.16) × 10^−3 h^−1 | –
dA30C4v2: hydrogel strands: 30 adenine followed by 20 complementary base pairs as overhang; strand1 and strand2, SEQ ID NO 33, 34 (nucleic acid, DNA, backbone not given here; hydrogel-forming strands with complementary overhangs) chain 1: AAAAAAAAAAAAAAAAAAAAAAAAAAAAAACCCCATTCTACTTGAGAGAGCGAC chain 2: AAAAAAAAAAAAAAAAAAAAAAAAAAAAAACCCCGTCGCTCTCTCAAGTAGAAT | – | – | – | – | storage modulus G′ (1 Hz) ([3]; 700 μM strands (1.4 wt % for dA30C4v2), CA 20 mM): 4±0.8×10^3 Pa; G′ ([3]; 4 wt % (CA included)): 3×10^4 Pa
dA30-dsDNA13: half strand1 and half strand2, SEQ ID NO 31 and 32, double-stranded DNA crosslink (nucleic acid, DNA, backbone not given here; crosslinked double-stranded DNA) chain 1: AAAAAAAAAAAAAAAAAAAAAAAAAAAAAACTAGAAGTGTCCAGTTA chain 2: AAAAAAAAAAAAAAAAAAAAAAAAAAAAAATTACTAACTGGACACTT | – | – | – | – | yield point of the gel (G″ overtakes G′) ([3]; 700 μM): Around 1 % shear strain; G′ and G″ after adding stoichiometric amount of melamine ([3]; 700 μM, CA 20 mM, melamine 20 mM): greatly decreases G′ and G″; self-healing, return to initial modulus ([3]; cycling low shear (0.1%) and high shear (100%)): under 1 min

— patent US20260224732A1, “BIOPOLYMER PROTECTED OLIGONUCLEOTIDES FOR DRUG DELIVERY” (THE ROYAL INSTITUTION FOR THE ADVANCEMENT OF LEARNING / …, priority 2023, published 2026)
